From patent US20020035061A1, “COMPOSITIONS AND METHODS FOR TREATING INFECTIONS USING CATIONIC PEPTIDES ALONE OR IN COMBINATION WITH ANTIBIOTICS” (priority 1996, published 2002)
Where two headings read alike, the source gives them in different places.

Columns and labels:
[1] = test system: mammalian red blood cells; conditions: 37° C., 1 hour
Description: Candidate cationic peptides may be further tested for their toxicity to normal mammalian cells. An exemplary assay is a red blood cell (RBC) (erythrocyte) hemolysis assay. Briefly, in this assay, red blood cells are isolated from whole blood, typically by centrifugation, and washed free of plasma components. A 5% (v/v) suspension of erythrocytes in isotonic saline is incubated with different concentrations of peptide analogue. […] After incubation for approximately 1 hour at 37° C., the cells are centrifuged, and the absorbance of the supernatant at 540 nm is determined. A relative measure of lysis is determined by comparison to absorbance after complete lysis of erythrocytes using NH4Cl or equivalent (establishing a 100% value). A peptide with <10% lysis at 100 μg/ml is suitable. Preferably, there is <5% lysis at 100 μg/ml. Such peptides that are not lytic, or are only moderately lytic, are desirable and suitable for further screening.
Cationic peptides are tested for toxicity towards eukaryotic cells by measuring the extent of lysis of mammalian red blood cells (RBC). Briefly, in this assay, red blood cells are separated from whole blood by centrifugation and washed free of plasma components. A 5% (v/v) washed red blood cell suspension is prepared in isotonic saline. An aliquot of peptide in formulation is then added and mixed in. After incubation at 37° C. for 1 hour with constant agitation, the solution is centrifuged and the supernatant measured for absorbance at 540 nm to detect released hemoglobin.
A combination of cationic peptide and antibiotic agent is tested for toxicity towards eukaryotic cells by measuring the extent of lysis of mammalian red blood cells. Briefly, red blood cells are separated from whole blood by centrifugation, washed free of plasma components, and resuspended to a 5% (v/v) suspension in isotonic saline. […] Following incubation with constant agitation at 37° C. for 1 hour, the solution is centrifuged, and the absorbance of the supernatant is measured at 540 nm, which detects released hemoglobin. […]

A. calcoaceticus = type: cell-based; conditions: A. calcoaceticus strain AC001
E. cloacae = type: cell-based; conditions: E. cloacae strain ECL007
E. coli = type: cell-based; conditions: for Peptide MIC values: agarose dilution
E. faecalis = type: cell-based
E. faecium = type: cell-based; conditions: for MIC: E. faecium strain EFM003
H. influenzae = assay: Agarose dilution assay (MIC); type: cell-based; conditions: H. influenzae strain HIN002
K. pneumoniae = type: cell-based
P. aeruginosa = type: cell-based; conditions: for Peptide MIC values: agarose dilution
P. mirabilis = assay: Agarose dilution assay (MIC); type: cell-based; conditions: P. mirabilis strain PM001
S. aureus = type: cell-based; conditions: for Peptide MIC values: agarose dilution
S. maltophilia = type: cell-based; conditions: S. maltophilia strain SMA001
S. marcescens = type: cell-based; conditions: for Peptide MIC values: agarose dilution
S. pneumoniae = assay: Agarose dilution assay (MIC); type: cell-based; conditions: for Peptide MIC values: agarose dilution
S. pyogenes = assay: Agarose dilution assay (MIC); type: cell-based; conditions: S. pyogenes strain SPY002
bacterial isolates = assay: microbe, parasite or virus in culture; type: cell-based
[2] = test system: inherently resistant microorganisms; assay: microbe, parasite or virus in culture; type: cell-based; conditions: S. aureus MRSA
[3] = test system: microorganisms with acquired resistance; assay: microbe, parasite or virus in culture; type: cell-based; conditions: for Peptide MIC Alone: Piperacillin section; for FIC: peptide + Piperacillin
[4] = test system: MSSA (Smith, ATCC # 19640); assay: In vivo efficacy, MSSA infection; set-up: species or system S. aureus; conditions: 18 mg/kg ip, formulation D, 60 min post-infection; end of eight day observation
[5] = test system: DoHH-2, B-cell cell lymphoma; assay: Cell death by Cytotox (Promega) lactate dehydrogenase release; type: cell-based; conditions: LDH release
Description: (§1) In addition, APO-peptides and parent peptides are tested against a panel of cancer cell lines. Cell death is measured using the Cytotox (Promega) assay kit which measures the release of lactate dehydrogenase.
(§2) PBL, peripheral blood lymphocytes; HUVEC, human umbilical vein endothelial cells; H460,non-small lung tumor; K562, chronic myelogenous leukemia; DoHH-2, B-cell cell lymphoma; P388, lymphocytic leukemia; P388ADR, lymphocytic leukemia, multidrug resistant; MCF-7, breast carcinoma; MCF-7ADR, breast carcinoma, multidrug resistant.

[6] = test system: H460, non-small lung tumor; assay: as above; type: cell-based; conditions: LDH release
Description: as §1, §2

[7] = test system: HUVEC, human umbilical vein endothelial cells; assay: as above; type: cell-based; conditions: LDH release
Description: as §1, §2

[8] = test system: K562, chronic myelogenous leukemia; assay: as above; type: cell-based; conditions: LDH release
Description: as §1, §2

MCF-7, breast carcinoma = assay: as above; type: cell-based; conditions: LDH release
Description: as §1, §2

[9] = test system: MCF-7ADR, breast carcinoma, multidrug resistant; assay: as above; type: cell-based; conditions: LDH release
Description: as §1, §2

[10] = test system: P388, lymphocytic leukemia; assay: as above; type: cell-based; conditions: LDH release
Description: as §1, §2

[11] = test system: P388ADR, lymphocytic leukemia, multidrug resistant; assay: as above; type: cell-based; conditions: LDH release
Description: as §1, §2

[12] = test system: PBL, peripheral blood lymphocytes; assay: as above; type: cell-based; conditions: LDH release
Description: as §1, §2

P. vulgaris = assay: Agarose dilution assay (MIC); type: cell-based
S. epidermidis = type: cell-based; conditions: S. epidermidis strain SE002

## CC[C@H](C)[C@H](NC(=O)CNC(=O)[C@@H](NC(=O)[C@H](CCCCN)NC(=O)[C@H](CCCCN)NC(=O)[C@H](Cc1ccccc1)NC(=O)[C@H](CC(C)C)NC(=O)[C@H](CCCCN)NC(=O)[C@H](Cc1c[nH]c2ccccc12)NC(=O)[C@@H](N)CCCCN)[C@@H](C)CC)C(=O)NCC(=O)N[C@@H](C)C(=O)N[C@H](C(=O)N[C@@H](CC(C)C)C(=O)N[C@@H](CCCCN)C(=O)N[C@H](C(=O)N[C@@H](CC(C)C)C(=O)N[C@H](C(=O)N[C@H](C(=O)NCC(=O)N[C@@H](CC(C)C)C(=O)N1CCC[C@H]1C(=O)N[C@@H](C)C(=O)N[C@@H](CC(C)C)C(=O)N[C@@H](CCCCN)C(=O)N[C@@H](CC(C)C)C(=O)N[C@H](C(=O)N[C@@H](CCCCN)C(=O)O)[C@@H](C)O)[C@@H](C)O)[C@@H](C)O)C(C)C)C(C)C [MBI 28]
[1]
  % Lysis: 4.7%

## ILKKWPWWPWRRK [MBI 11E3CN]
A. calcoaceticus
  MIC: 16 µg/mL
E. cloacae
  MIC: >128 µg/mL
E. coli; E. coli strain ECO001
  MIC: 4 µg/mL
E. faecalis; E. faecalis strain EFS004
  MIC: 8 µg/mL
E. faecium
  MIC: 2 µg/mL
H. influenzae
  MIC: >128 µg/mL
K. pneumoniae; K. pneumoniae strain KP002
  MIC: 32 µg/mL
P. aeruginosa; P. aeruginosa strain PA041
  MIC: 64 µg/mL
P. mirabilis
  MIC: >128 µg/mL
S. aureus; S. aureus strain SA010
  MIC: 2 µg/mL
S. maltophilia
  MIC: 32 µg/mL
S. marcescens; S. marcescens strain SMS004
  MIC: >128 µg/mL
S. pneumoniae; S. pneumoniae strain SBSPN2
  MIC: >128 µg/mL
S. pneumoniae; S. pneumoniae strain SPN044
  MIC: >128 µg/mL
S. pyogenes
  MIC: 16 µg/mL
Bacterial isolates; H. influenzae 1
  Peptide MIC + Piperacillin: 4 µg/mL
  Piperacillin MIC + Peptide: 32 µg/mL
Bacterial isolates; H. influenzae 1, Piperacillin section
  Peptide MIC Alone: >128 µg/mL
Bacterial isolates; H. influenzae 2
  Peptide MIC + Piperacillin: 16 µg/mL
  Piperacillin MIC + Peptide: 8 µg/mL
Bacterial isolates; H. influenzae 2, Piperacillin section
  Peptide MIC Alone: >128 µg/mL
Bacterial isolates; P. aeruginosa 23
  Peptide MIC + Piperacillin: 1 µg/mL
  Piperacillin MIC + Peptide: 32 µg/mL
Bacterial isolates; P. aeruginosa 23, Piperacillin section
  Peptide MIC Alone: 64 µg/mL
Bacterial isolates; P. aeruginosa 32
  Peptide MIC + Piperacillin: 8 µg/mL
  Piperacillin MIC + Peptide: 32 µg/mL
Bacterial isolates; P. aeruginosa 32, Piperacillin section
  Peptide MIC Alone: 64 µg/mL
Bacterial isolates; S. aureus 19 MRSA
  Peptide MIC + Piperacillin: 1 µg/mL
  Piperacillin MIC + Peptide: 64 µg/mL
Bacterial isolates; S. aureus 19 MRSA, Piperacillin section
  Peptide MIC Alone: 4 µg/mL
Bacterial isolates; S. maltophilia 11
  Peptide MIC + Piperacillin: 64 µg/mL
  Piperacillin MIC + Peptide: 2 µg/mL
Bacterial isolates; S. maltophilia 11, Piperacillin section
  Peptide MIC Alone: 128 µg/mL
Bacterial isolates; S. marcescens SB1
  Peptide MIC + Piperacillin: 2 µg/mL
  Piperacillin MIC + Peptide: 16 µg/mL
Bacterial isolates; S. marcescens SB1, Piperacillin section
  Peptide MIC Alone: >128 µg/mL
Bacterial isolates; peptide + Piperacillin, H. influenzae 1
  FIC: 0.52
Bacterial isolates; peptide + Piperacillin, H. influenzae 2
  FIC: 0.31
Bacterial isolates; peptide + Piperacillin, P. aeruginosa 23
  FIC: 0.27
Bacterial isolates; peptide + Piperacillin, P. aeruginosa 32
  FIC: 0.63
Bacterial isolates; peptide + Piperacillin, S. aureus 19 MRSA
  FIC: 0.50
Bacterial isolates; peptide + Piperacillin, S. maltophilia 11
  FIC: 0.51
Bacterial isolates; peptide + Piperacillin, S. marcescens SB1
  FIC: 0.26
[2]
  Peptide MIC + Piperacillin: 2 µg/mL
[2]; Piperacillin section
  Peptide MIC Alone: 4 µg/mL
[2]; peptide + Piperacillin
  FIC: 0.51
[3]; A. calcoaceticus 3
  Peptide MIC + Piperacillin: 8 µg/mL
  Piperacillin MIC + Peptide: 16 µg/mL
  Peptide MIC Alone: 32 µg/mL
  FIC: 0.75
[3]; H. influenzae 1
  Peptide MIC + Piperacillin: 64 µg/mL
  Piperacillin MIC + Peptide: 8 µg/mL
  Peptide MIC Alone: >128 µg/mL
  FIC: 0.38
[3]; H. influenzae 2
  Peptide MIC + Piperacillin: 16 µg/mL
  Piperacillin MIC + Peptide: 8 µg/mL
  Peptide MIC Alone: >128 µg/mL
  FIC: 0.31
[3]; P. aeruginosa 7
  Peptide MIC + Piperacillin: 32 µg/mL
  Piperacillin MIC + Peptide: 64 µg/mL
  Peptide MIC Alone: 64 µg/mL
  FIC: 1.00
[3]; P. aeruginosa 23
  Peptide MIC + Piperacillin: 1 µg/mL
  Piperacillin MIC + Peptide: 32 µg/mL
  Peptide MIC Alone: 64 µg/mL
  FIC: 0.27
[3]; S. maltophilia 3
  Peptide MIC + Piperacillin: 16 µg/mL
  Piperacillin MIC + Peptide: 16 µg/mL
  Peptide MIC Alone: 32 µg/mL
  FIC: 0.75
[3]; S. maltophilia 4
  Peptide MIC + Piperacillin: 16 µg/mL
  Piperacillin MIC + Peptide: 16 µg/mL
  Peptide MIC Alone: 32 µg/mL
  FIC: 0.75
[3]; S. marcescens SB1
  Peptide MIC + Piperacillin: 2 µg/mL
  Piperacillin MIC + Peptide: 16 µg/mL
  Peptide MIC Alone: >128 µg/mL
  FIC: 0.26
[4]
  % Survival: 70%
[5]
  LC50 ± S.E., DoHH-2: 3.6 µg/mL
[6]
  LC50 ± S.E., H460: 18 µg/mL
[7]
  LC50 ± S.E., HUVEC: 117 ± 7 µg/mL
[8]
  LC50 ± S.E., K562: 9 µg/mL
MCF-7, breast carcinoma
  LC50 ± S.E., MCF-7: 5.6 ± 2 µg/mL
[9]
  LC50 ± S.E., MCF-7 ADR: 5.3 ± 1 µg/mL
[10]
  LC50 ± S.E., P388: 13.9 ± 3 µg/mL
[11]
  LC50 ± S.E., P388 ADR: 7.9 ± 3 µg/mL
[12]
  LC50 ± S.E., PBL: 22 ± 11 µg/mL

## ILKKYPYYPYRRK [MBI 11A3CN]
A. calcoaceticus
  MIC: >128 µg/mL
E. cloacae
  MIC: >128 µg/mL
E. coli; E. coli strain ECO002
  MIC: >128 µg/mL
E. coli; E. coli ATCC 25922
  Peptide MIC values: >128 µg/mL
E. coli; E. coli ESS
  Peptide MIC values: >128 µg/mL
E. coli; E. coli NCTC 10418
  Peptide MIC values: 64 µg/mL
E. faecalis; E. faecalis strain EFS002
  MIC: >128 µg/mL
E. faecium
  MIC: 64 µg/mL
E. faecium; agarose dilution
  Peptide MIC values: >128 µg/mL
H. influenzae
  MIC: >128 µg/mL
K. pneumoniae; K. pneumoniae strain KP001
  MIC: >128 µg/mL
P. aeruginosa; P. aeruginosa strain PA002
  MIC: >128 µg/mL
P. aeruginosa; P. aeruginosa ATCC 27853
  Peptide MIC values: >128 µg/mL
P. aeruginosa; P. aeruginosa NCTC 10662
  Peptide MIC values: >128 µg/mL
P. vulgaris; P. vulgaris strain SBPV1
  MIC: >128 µg/mL
P. vulgaris; agarose dilution, P. vulgaris ATCC 13315
  Peptide MIC values: >128 µg/mL
S. aureus; S. aureus strain SA004
  MIC: 32 µg/mL
S. aureus; S. aureus ATCC 29213
  Peptide MIC values: 16 µg/mL
S. aureus; S. aureus MRSA9
  Peptide MIC values: 128 µg/mL
S. aureus; S. aureus MRSA13
  Peptide MIC values: >128 µg/mL
S. aureus; S. aureus MRSA17
  Peptide MIC values: >128 µg/mL
S. aureus; S. aureus SA206
  Peptide MIC values: >128 µg/mL
S. epidermidis
  MIC: 128 µg/mL
S. maltophilia
  MIC: >128 µg/mL
S. marcescens; S. marcescens strain SBSM2
  MIC: >128 µg/mL
S. marcescens; S. marcescens SM76
  Peptide MIC values: >128 µg/mL
S. marcescens; S. marcescens SM82
  Peptide MIC values: >128 µg/mL
S. pneumoniae; S. pneumoniae strain SBSPN3
  MIC: >128 µg/mL
S. pneumoniae; S. pneumoniae 406LE8
  Peptide MIC values: >128 µg/mL
S. pneumoniae; S. pneumoniae 60120
  Peptide MIC values: >128 µg/mL
S. pneumoniae; S. pneumoniae ATCC 49619
  Peptide MIC values: >128 µg/mL
Bacterial isolates; E. coli SBECO1
  Mupirocin MIC + Peptide: 30 µg/mL
  Peptide MIC + Mupirocin: 8 µg/mL
Bacterial isolates; E. coli SBECO1, Mupirocin section
  Peptide MIC Alone: 64 µg/mL
Bacterial isolates; peptide + Mupirocin, E. coli SBECO1
  FIC: 0.43
[5]
  LC50 ± S.E., DoHH-2: >500 µg/mL
[6]
  LC50 ± S.E., H460: >500 µg/mL
[7]
  LC50 ± S.E., HUVEC: >500 µg/mL
[8]
  LC50 ± S.E., K562: >500 µg/mL
[10]
  LC50 ± S.E., P388: >300 µg/mL
[11]
  LC50 ± S.E., P388 ADR: >300 µg/mL
[12]
  LC50 ± S.E., PBL: >500 µg/mL
